Laboratory results: paper PMC4138103 (PLoS ONE, 2014)
“And” between values parts separate entries of the source, which are not always exact repeats. Equal values may be shown once.

Test system: Sprague-Dawley rats
Experiment: Retinoid analyses in liver, serum and kidney
Format: in vivo, Rattus norvegicus
Set-up: key to Dose response, Liver Retinol: D: significant dose response (for results see Table 2 in the text); T: significant trend; key to Kidney Retinyl esters, Dose response / Liver All-trans RA, Dose response / Kidney All-trans RA, Dose response / Serum Retinol, Dose response: D: significant dose response (for results, see Table 2); T: significant trend
Experimental: Retinoids in liver, serum, and kidney were analyzed according to Schmidt et al.. The polar retinoids 9-cis-retinoic acid (9-cis-RA), 13-cis-retinoic acid (13-cis-RA), 13-cis-4-oxo-retinoic acid (13-cis-4-o-RA), 9-cis-4-oxo-13,14-dihydro-retinoic acid (9-cis-4-o-13,14-dh-RA), all-trans retinoic acid (all-trans RA) and the apolar retinoids retinol and retinyl palmitate were extracted by a single liquid-extraction, separated from each other via solid-phase extraction using an aminopropyl phase, and then injected onto two different HPLC systems that were coupled with UV detection. […] The limits of detection (LOD) for all-trans RA and 9c-4o-13,14-dh-RA were 0.7 and 1.0 pmol/g tissue, and 0.3 and 0.6 pmol/ml serum, respectively. Retinol and retinyl palmitate were separated on a J'sphere ODS-H80 (4.6×150 mm, 4 µm particle size) obtained from YMC (Schermbeck, Germany), and were detected at 325 nm. The LOD for retinol and retinyl palmitate were 5.6 and 5.5 pmol/g tissue, and 4.2 and 4.2 pmol/ml serum, respectively.
Data were also analyzed using the BMD method, which is based on dose-response modeling of the full data set using a nested family of exponential and Hill models. The analyses were done on data of males and females combined, using sex as a covariate. […] In that case, different Critical Effect Doses (CEDs) and CEDs at the lowest bound of the confidence interval (CED-L) were generated for each sex. If no difference between sexes is detected, a CED and CED-Ls for the combined data is generated. However, this was also done if the curve fits are close, and separate analyses for males and females were then performed manually. CEDs and CED-Ls were calculated at the predefined Critical Effect Size (CES) of 5% (EFSA standard) or 10%.

[1] = females, CES 5%, total dose based
[2] = females, CES 10%, total dose based
[3] = females, adipose tissue concentration based
[4] = males, total dose 0-1700 mg/kg bw
[5] = males, total dose 3 mg/kg bw, group mean, N=5
[6] = males, total dose 10 mg/kg bw, group mean, N=5
[7] = males, total dose 30 mg/kg bw, group mean, N=5

SMILES: Clc1cc(Cl)c(-c2cc(Cl)c(Cl)c(Cl)c2Cl)cc1Cl [PCB 180, 2,2′,3′,4,4′,5,5′-heptachlorobiphenyl]
- Kidney all-trans RA amount, CED-L [1]: 319 mg/kg bw
- Kidney all-trans RA concentration, CED [1]: 457 mg/kg bw
- Kidney all-trans RA concentration, CED-L [1]: 321 mg/kg bw
- Kidney retinol amount, CED [1]: 355 mg/kg bw
- Kidney retinol amount, CED-L [1]: 221 mg/kg bw
- Kidney retinol concentration, CED [1]: 335 mg/kg bw
- Kidney retinol concentration, CED-L [1]: 216 mg/kg bw
- Liver 9c-4o-13,14-dh-RA amount, CED [1]: 13.1 mg/kg bw
- Liver 9c-4o-13,14-dh-RA amount, CED-L [1]: 8.29 mg/kg bw
- Liver 9c-4o-13,14-dh-RA conc., CED [1]: 12 mg/kg bw and 12.2 mg/kg bw
- Liver 9c-4o-13,14-dh-RA conc., CED-L [1]: 8.77 mg/kg bw
- Liver retinol concentration, CED [1]: 156 mg/kg bw
- Liver retinol concentration, CED-L [1]: 119 mg/kg bw
- Liver retinyl esters amount, CED [1]: 254 mg/kg bw
- Liver retinyl esters amount, CED-L [1]: 189 mg/kg bw
- Liver retinyl esters concentration, CED [1]: 122 mg/kg bw
- Liver retinyl esters concentration, CED-L [1]: 104 mg/kg bw
- Serum retinol concentration, CED [1]: 400 mg/kg bw
- Serum retinol concentration, CED-L [1]: 242 mg/kg bw
- Kidney all-trans RA amount, CED [2]: 965 mg/kg bw
- Kidney all-trans RA amount, CED-L [2]: 625 mg/kg bw
- Kidney all-trans RA concentration, CED [2]: 892 mg/kg bw
- Kidney all-trans RA concentration, CED-L [2]: 626 mg/kg bw
- Kidney retinol amount, CED [2]: 694 mg/kg bw
- Kidney retinol amount, CED-L [2]: 431 mg/kg bw
- Kidney retinol concentration, CED [2]: 655 mg/kg bw
- Kidney retinol concentration, CED-L [2]: 421 mg/kg bw
- Liver 9c-4o-13,14-dh-RA amount, CED [2]: 27.2 mg/kg bw
- Liver 9c-4o-13,14-dh-RA amount, CED-L [2]: 17.2 mg/kg bw
- Liver 9c-4o-13,14-dh-RA conc., CED [2]: 25.3 mg/kg bw
- Liver 9c-4o-13,14-dh-RA conc., CED-L [2]: 18.2 mg/kg bw
- Liver retinol concentration, CED [2]: 374 mg/kg bw
- Liver retinol concentration, CED-L [2]: 263 mg/kg bw
- Liver retinyl esters amount, CED [2]: 522 mg/kg bw
- Liver retinyl esters amount, CED-L [2]: 388 mg/kg bw
- Liver retinyl esters concentration, CED [2]: 252 mg/kg bw
- Liver retinyl esters concentration, CED-L [2]: 214 mg/kg bw
- Serum retinol concentration, CED [2]: 781 mg/kg bw
- Serum retinol concentration, CED-L [2]: 474 mg/kg bw
- Kidney all-trans RA concentration, CED [3]: 2930 µg/g lipid
- Kidney retinol concentration, CED [3]: 2060 µg/g lipid
- Liver 9c-4o-13,14-dh-RA concentration, CED [3]: 55.5 µg/g lipid and 56 µg/g lipid
- Liver retinol concentration, CED [3]: 1000 µg/g lipid
- Liver retinyl ester concentration, CED [3]: 793 µg/g lipid
- Serum retinol concentration, CED [3]: 2470 µg/g lipid
- Serum retinol concentration, Maximum response (females, controls vs high dose, fitted model): 23.1%
- Liver retinol concentration, max. decrease (males): 47%
- Liver retinyl ester concentration, max. decrease (males): 63%
- Dose response, Kidney Retinol [4]: D, T
- Dose response, Kidney Retinyl esters [4]: D, T
- Dose response, Liver All-trans RA [4]: D, T
- Dose response, Liver Retinol [4]: D
- Dose response, Liver Retinyl esters [4]: D, T
- Kidney Retinol, Dose response [4]: D, T
- Kidney Retinyl esters, Dose response [4]: D
- Liver All-trans RA, Dose response [4]: D
- Liver Retinol, Dose response [4]: D, T
- Liver Retinyl esters, Dose response [4]: D, T
- Kidney All-trans RA [5]: 35.9 pmol
- Kidney Retinol [5]: 14.2 nmol
- Kidney Retinyl esters [5]: 4.99 nmol
- Liver 9-cis-4o-13,14-dh RA [5]: 218 pmol
- Liver All-trans RA [5]: 544 pmol
- Liver Retinol [5]: 0.28 µmol
- Liver Retinyl esters [5]: 11.5 µmol
- Kidney All-trans RA [6]: 36.9 pmol
- Kidney Retinol [6]: 17.6 nmol
- Kidney Retinyl esters [6]: 8.73 nmol
- Liver All-trans RA [6]: 632 pmol
- Liver Retinol [6]: 0.32 µmol
- Liver Retinyl esters [6]: 12.5 µmol
- Kidney All-trans RA (males, total dose 30 mg/kg bw): 31.8 pmol/g
- Kidney Retinol (males, total dose 30 mg/kg bw): 16.9 nmol/g
- Kidney Retinyl esters (males, total dose 30 mg/kg bw): 7.83 nmol/g
- Liver All-trans RA (males, total dose 30 mg/kg bw): 44.5 pmol/g
- Liver Retinol (males, total dose 30 mg/kg bw): 20.5 nmol/g
- Liver Retinyl esters (males, total dose 30 mg/kg bw): 0.77 µmol/g
- Serum Retinyl esters (males, total dose 30 mg/kg bw): 46.5 pmol/mL
- Liver Retinyl esters (males, total dose 30 mg/kg bw, Liver): 46.5 pmol/mL
- Liver Retinol (males, total dose 30 mg/kg bw, Liver, n=4): 1.65 pmol/mL
- Kidney All-trans RA [7]: 33.3 pmol
- Kidney Retinol [7]: 17.5 nmol
- Kidney Retinyl esters [7]: 8.12 nmol
- Liver All-trans RA [7]: 623 pmol
- Liver Retinol [7]: 0.29 µmol
- Liver Retinyl esters [7]: 10.7 µmol
- Serum Retinol (males, total dose 30 mg/kg bw, n=4): 1.65 pmol/mL
- Kidney All-trans RA (males, total dose 100 mg/kg bw): 34.8 pmol/g
- Kidney Retinol (males, total dose 100 mg/kg bw): 16.3 nmol/g
- Kidney Retinyl esters (males, total dose 100 mg/kg bw): 8.27 nmol/g
- Liver All-trans RA (males, total dose 100 mg/kg bw): 44.4 pmol/g
- Liver Retinol (males, total dose 100 mg/kg bw): 15.7 nmol/g
- Liver Retinyl esters (males, total dose 100 mg/kg bw): 0.62 µmol/g
- Serum Retinyl esters (males, total dose 100 mg/kg bw): 84.5 pmol/mL
